In US7960556B2, “Thiadiazole derivatives for the treatment of neuro-degenerative diseases” (NV reMYND, priority 2006, dated 2011):

Test system: α-synuclein cytotoxicity in M17-SYNwt cells
Assay: α-synuclein cytotoxicity assay: LDH leakage from paraquat-treated M17-SYNwt neuroblastoma cells;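 also: paraquat at 32 mM co-added with compound, 40 h exposure, LDH activity released into the culture medium measured, references are DMSO-only cells and paraquat plus DMSO cells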
Conditions: Homo sapiens, Neuroblastoma cell; for Emax: read-out: % Inhib.
Source text: An α-synuclein expression plasmid was constructed by sub-cloning the NcoI/XhoI fragment from 212T-SYN(WT) (Griffioen et al., Biochem Biophys Acta (2006) 1762(3):312-318) containing the cDNA of human wild type α-synuclein correspondingly into a standard mammalian expression vector pcDNA3.1 (Invitrogen) resulting into the plasmid pcDNA3.1-SYNwt. Plasmids pcDNA3.1 and pcDNA3.1-SYNwt were transfected to human neuroblastoma cells (ATCC No. CRL-2267) and independent clonal lines with the plasmids stably integrated into the genome were selected. […] Over-expression of α-synuclein in M17-SYNwt cell lines was confirmed by Western analysis.
Due to the high levels of α-synuclein M17-SYNwt cells are exquisitely sensitivity to paraquat, a well-known risk factor of synuclein-dependent neuronal degeneration. In degenerated or dead cells lactate dehydrogenase (LDH) is leaked out of the cells into the extracellular environment due to a loss of plasma-membrane integrity. This principle was used to determine cytotoxicity by quantifying the level of leaked LDH into the growth medium.
The detailed method for determining α-synuclein cytotoxicity was as follows: From appropriate precultures of M17 and M17-SYN cells were seeded at 50,000 cells/cm^2 in Optimem Reduced Serum without phenol red (available from InVitrogen, Cat. 31985-047) supplemented with 5% fetal calf serum, 1 mM sodium pyruvate, 1× non-essential amino acids, 500 μg/ml G418 0,5× antibiotic/antimycotic. After 3 hours of incubation at 37° C./5% CO2 paraquat was added to the cells (final concentration of 32 mM), together with the test compound and the cells were further incubated for 40 hours. Subsequently, LDH activity was determined using Promega Cytotox 96 Non-Radioactive cytotoxicity assay, (Cat. G1780) according the instructions of the supplier.
In these experiments, the control group consisted of M17-SYNwt cells treated with DMSO, the untreated paraquat group consisted of M17-SYNwt cells treated with paraquat and DMSO, and the treated paraquat group consisted of M17-SYNwt cells treated with paraquat and the test compound dissolved in DMSO.

SMILES | EC50 [µM] | Emax [%]
CC1CN(c2nc(Cc3ccc(F)cc3)ns2)CCN1C(=O)c1ccc(Br)cc1 (stereo not shown) [compound 135, 1-(4-bromobenzoyl)-4-[3-(4-fluorobenzyl)-1,2,4-thiadiazol-5-yl]-2-methylpiperazine] | 0.31 | 73
CCc1ccc(NC(=O)N2CCN(c3nc(Cc4ccc(F)cc4)ns3)CC2C)cc1 (stereo not shown) [compound 11, N-(4-ethylphenyl)-4-[3-(4-fluorobenzyl)-1,2,4-thiadiazol-5-yl]-2-methylpiperazine-1-carboxamide] | 0.69 | 73
CC1CN(c2nc(Cc3ccc(F)cc3)ns2)CCN1C(=O)CCc1ccccc1 (stereo not shown) [compound 89, 1-(3-phenylpropanoyl)-4-[3-(4-fluorobenzyl)-1,2,4-thiadiazol-5-yl]-2-methylpiperazine] | 0.6 | 86
Cc1ccc(Cc2nsc(N3CCN(C(=O)c4ccc(F)cc4)CC3)n2)cc1 [compound 160, 1-(4-fluorobenzoyl)-4-[3-(4-methylbenzyl)-1,2,4-thiadiazol-5-yl]piperazine] | 2.87 | 88
CCCCCCc1ccc(C(=O)N2CCN(c3nc(Cc4ccc(C)cc4)ns3)CC2)cc1 [compound 176, 1-(4-hexylbenzoyl)-4-[3-(4-methylbenzyl)-1,2,4-thiadiazol-5-yl]piperazine] |  | 77
O=C(Cc1ccccc1)NCCN1CCN(c2nc(Cc3ccc(F)cc3)ns2)CC1 [compound 108, 2-phenyl-N-{2-[4-[3-(4-fluorobenzyl)-1,2,4-thiadiazol-5-yl]piperazin-1-yl]ethyl}acetamide] | 2.06 | 63
COc1ccc(S(=O)(=O)N2CCN(c3nc(Cc4ccc(Cl)cc4)ns3)CC2)cc1 [compound 31, 1-[4-methoxyphenylsulfonyl]-4-[3-(4-chlorobenzyl)-1,2,4-thiadiazol-5-yl]piperazine] | 0.000169 | 59
CCCCCCc1ccc(C(=O)NCCN2CCN(c3nc(Cc4ccc(F)cc4)ns3)CC2)cc1 [compound 96, 4-hexyl-N-{2-[4-[3-(4-fluorobenzyl)-1,2,4-thiadiazol-5-yl]piperazin-1-yl]ethyl}benzamide] | 0.8 | 72
Cc1cccc(C)c1NC(=O)N1CCN(c2nc(Cc3ccc(F)cc3)ns2)CC1C (stereo not shown) [compound 19, N-(2,6-dimethylphenyl)-4-[3-(4-fluorobenzyl)-1,2,4-thiadiazol-5-yl]-2-methylpiperazine-1-carboxamide] | 0.2 | 95
O=S(=O)(c1ccc(O)cc1)N1CCN(c2nc(Cc3ccc(F)cc3)ns2)CC1 [compound 217, 1-(4-hydroxybenzenesulfonyl)-4-[3-(4-fluoro-benzyl)-1,2,4-thiadiazol-5-yl]piperazine] | 0.077 | 77
CC1CN(c2nc(Cc3ccc(F)cc3)ns2)CCN1C(=O)c1ccc(F)cc1 (stereo not shown) [compound 127, 1-(4-fluorobenzoyl)-4-[3-(4-fluorobenzyl)-1,2,4-thiadiazol-5-yl]-2-methylpiperazine] | 0.23 | 108
CCS(=O)(=O)N1CCN(c2nc(Cc3ccc(Cl)cc3)ns2)CC1 [compound 84, 1-(ethylsulfonyl)-4-[3-(4-chlorobenzyl)-1,2,4-thiadiazol-5-yl]piperazine] | 3.48 | 53
CCC(C(=O)N1CCN(c2nc(Cc3ccc(F)cc3)ns2)CC1C)c1ccccc1 (stereo not shown) [compound 8, 1-(2-phenylbutanoyl)-4-[3-(4-fluorobenzyl)-1,2,4-thiadiazol-5-yl]-2-methylpiperazine] | 1.49 | 71
CC1CN(c2nc(Cc3ccc(F)cc3)ns2)CCN1C(=O)c1cccc(C(F)(F)F)c1 (stereo not shown) [compound 145, 1-(3-trifluoromethylbenzoyl)-4-[3-(4-fluorobenzyl)-1,2,4-thiadiazol-5-yl]-2-methylpiperazine] | 0.62 | 60
O=C(c1ccccc1)N1CCN(c2nc(Cc3ccc(F)cc3)ns2)CC1 [compound 181, 1-benzoyl-4-[3-(4-fluorobenzyl)-1,2,4-thiadiazol-5-yl]piperazine] |  | 60
